In patent US20130131161A1, “METHODS AND COMPOSITIONS FOR CARDIOVASCULAR DISEASES AND CONDITIONS” (priority 2009, published 2013):
Values joined by “and” are separate entries in the source; they are usually repeats but may differ in a detail not shown here. Identical values can stand only once.

System: Human umbilical vein endothelial cells (HUVECs)
Assay: eNOS activity analysis: NO, ONOO− and NO/ONOO− release from HUVECs of 50 genotyped donors in response to LA-419 (Example 2)
Assay type: cell-based
Protocol: Concurrent measurements of NO and ONOO^− were carried out with tandem electrochemical nanosensors combined into one working unit with a total diameter of 200-500 nm (FIG. 1). Their design was based on previously developed and well-characterized chemically modified carbon-fiber technology (Malinski and Taha, 1992; Lvovich and Scheeline, 1997). Each of the nanosensors was made by depositing a sensing material on the tip of a carbon fiber (length 4-5 μm, diameter 0.2-0.5 μm). The fibers were sealed with nonconductive epoxy and electrically connected to copper wires with conductive silver epoxy. A conductive film of polymeric nickel (II) tetrakis(3-methoxy-4-hydroxyphenyl)porphyrin for the NO-sensor and polymeric film of Mn (III) [2.2]paracyclophanylporphyrin was used for the ONOO^−-sensor.
A module of NO/ONOO^− nanosensors (diameter 1-2 μm) with a platinum wire (0.1 mm) counter electrode and saturated calomel reference electrode (SCE) were applied. Differential pulse voltammetry (DPV) and amperometry were performed with a computer-based Gamry VFP600 multichannel potentiostat. DPV was used to measure the basal NO and ONOO^− concentrations, and amperometry was used to measure changes in NO and ONOO^− concentrations from its basal level with time. The DPV current at the peak potential characteristic for NO oxidation (0.65 V) and ONOO^− reduction (−0.45 V) was directly proportional to the local concentrations of these compounds in the immediate vicinity of the sensor. Linear calibration curves (current vs. concentration) were constructed for each sensor from 10 nM to 3 μM before and after measurements with aliquots of NO and ONOO^− standard solutions, respectively. The detection limit of the sensors was 1.0 nM.
The quantification of each analyte (concentration in nM) was performed using a maximum current from amperograms and standard calibration curves. A reproducibility of measurements with nanosensors is relatively high (between 5-12%). […] The sensors were slowly raised 5±2 μm from the surface of a single endothelial cell. The eNOS agonist, calcium ionophore A23187 (CaI) as well as the different drugs were then added to the surrounding media at the cell surface with a nanoinjector that was also positioned by a computer controlled-micromanipulator.
This example describes the genotype-specific response of the three major eNOS variants to 1 μM and 5 μM concentrations of LA-419. The three major genetic polymorphisms studied were the Glu298Asp variant (E298D or 894G→T) in exon 7 of […], the −786T→C variant in the promoter region, and the intron 4 polymorphism (VNTR). All of these variants have possible effects on the cardiovascular system and endothelial dysfunction. For this study, human umbilical vein endothelial cells (HUVECs) from 50 donors between 18 and 32 years of age were used.
For the analysis several analysis techniques were employed. First, the effect of genotype on NO and ONOO^− release was explored within the different concentrations of LA-419 (control, 1 μM, 5 μM), calculated as the average peak release (nmols/L) of NO, ONOO^−, and NO/ONOO^−. The effect of genotype on the net increase in NO, ONOO^−, and NO/ONOO^− for LA-419 (1 μM and 5 μM) as compared to control was also measured. In addition, an analysis was done on the effect of genotype on the % change in NO, ONOO^−, and NO/ONOO^− production for LA-419 (1 μM and 5 μM), calculated as:
% Change=[(avg. LA-419−avg. control)/(avg. control)]*100
Finally, an evaluation was undertaken concerning the effect of genotype on the production of NO, ONOO^−, and NO/ONOO^− as the fold difference of control for LA-419 (1 μM and 5 μM), calculated as:
Fold Difference=(avg. LA-419)/(avg. control)
Within each calculation technique the results were compared for statistical significance using a non-parametric ANOVA Kruskal-Wallace test or a non-parametric Mann-Whitney U test. Statistical significance was set at a p-value <0.05 in a two-tailed distribution. […]

[1] = (LA-419 1 μM)/(control), T-786C T/C & C/C, n=27
[2] = (LA-419 1 μM)/(control), T-786C T/C, n=23
[3] = (LA-419 1 μM)/(control), T-786C T/T & T/C, n=45
[4] = (LA-419 1 μM)/(control), T-786C T/T, n=22
[5] = (LA-419 5 μM)/(control), Combination of all G894T + T-786C genotypes but G/G + T/T, n=31
[6] = (LA-419 5 μM)/(control), Combination of all G894T + T-786C genotypes but T/T + C/C, n=46
[7] = (LA-419 5 μM)/(control), G894T + T-786C G/G + T/C, n=8
[8] = (LA-419 5 μM)/(control), G894T + T-786C G/G + T/T, n=18
[9] = (LA-419 5 μM)/(control), G894T + T-786C G/T + C/C, n=1
[10] = (LA-419 5 μM)/(control), G894T + T-786C G/T + T/C, n=13
[11] = (LA-419 5 μM)/(control), G894T + T-786C G/T + T/T, n=4
[12] = (LA-419 5 μM)/(control), G894T + T-786C T/T + C/C, n=1
[13] = (LA-419 5 μM)/(control), G894T + T-786C T/T + C/C, n=3
[14] = (LA-419 5 μM)/(control), G894T + T-786C T/T + T/C, n=2
[15] = (LA-419 5 μM)/(control), G894T G/G & G/T, n=44
[16] = (LA-419 5 μM)/(control), G894T G/G, n=26
[17] = (LA-419 5 μM)/(control), G894T G/T & T/T, n=23
[18] = (LA-419 5 μM)/(control), G894T G/T, n=18
[19] = (LA-419 5 μM)/(control), G894T T/T, n=5
[20] = (LA-419 5 μM)/(control), Intron 4 a/a, n=1
[21] = (LA-419 5 μM)/(control), Intron 4 a/a, n=3
[22] = (LA-419 5 μM)/(control), Intron 4 b/a, a/a, c/c, n=14
[23] = (LA-419 5 μM)/(control), Intron 4 b/a, n=10
[24] = (LA-419 5 μM)/(control), Intron 4 b/b, b/a, c/c, n=42
[25] = (LA-419 5 μM)/(control), Intron 4 b/b, n=31
[26] = (LA-419 5 μM)/(control), Intron 4 c/c, n=1
[27] = (LA-419 5 μM)/(control), T-786C C/C, n=1

## CC(=O)SC1COC2C(O[N+](=O)[O-])COC12 (stereo not drawn) [LA-419, S-(6-Nitro-oxi-hexahydro-furo[3,2-b]furan-3-1-il)thioacetate]
(LA-419 1 μM)/(control), T-786C C/C, n=4
  Fold difference ONOO− (mean ± sd): 1.11 (0.44)
[1]
  Fold difference NO (mean ± sd): 1.15 (0.28)
  Fold difference NO/ONOO− (mean ± sd): 1.45 (0.75)
  Fold difference ONOO− (mean ± sd): 0.91 (0.31)
[2]
  Fold difference NO (mean ± sd): 1.18 (0.30)
  Fold difference NO/ONOO− (mean ± sd): 1.53 (0.78)
  Fold difference ONOO− (mean ± sd): 0.88 (0.28)
[3]
  Fold difference NO (mean ± sd): 1.14 (0.25)
  Fold difference NO/ONOO− (mean ± sd): 1.39 (0.67)
  Fold difference ONOO− (mean ± sd): 0.91 (0.25)
[4]
  Fold difference NO (mean ± sd): 1.09 (0.18)
  Fold difference NO/ONOO− (mean ± sd): 1.25 (0.52)
  Fold difference ONOO− (mean ± sd): 0.95 (0.22)
[5]
  Fold difference NO (mean ± sd): 1.13 (0.06)
  Fold difference NO/ONOO− (mean ± sd): 1.40 (0.14)
  Fold difference ONOO− (mean ± sd): 0.81 (0.07)
[6]
  Fold difference NO (mean ± sd): 1.14 (0.06)
  Fold difference NO/ONOO− (mean ± sd): 1.44 (0.16)
  Fold difference ONOO− (mean ± sd): 0.81 (0.07)
[7]
  Fold difference NO (mean ± sd): 1.14 (0.07)
  Fold difference NO/ONOO− (mean ± sd): 1.44 (0.18)
  Fold difference ONOO− (mean ± sd): 0.80 (0.07)
[8]
  Fold difference NO (mean ± sd): 1.17 (0.06)
  Fold difference NO/ONOO− (mean ± sd): 1.50 (0.18)
  Fold difference ONOO− (mean ± sd): 0.79 (0.08) and 0.79 (0.06)
[9]
  Fold difference NO (mean ± sd): 1.12 (0)
  Fold difference NO/ONOO− (mean ± sd): 1.32 (0)
  Fold difference ONOO− (mean ± sd): 0.85 (0)
[10]
  Fold difference NO (mean ± sd): 1.13 (0.07)
  Fold difference NO/ONOO− (mean ± sd): 1.37 (0.11)
  Fold difference ONOO− (mean ± sd): 0.83 (0.04)
[11]
  Fold difference NO (mean ± sd): 1.14 (0.05)
  Fold difference NO/ONOO− (mean ± sd): 1.47 (0.19)
  Fold difference ONOO− (mean ± sd): 0.79 (0.12)
[12]
  Fold difference NO (mean ± sd): 1.08 (0)
  Fold difference NO/ONOO− (mean ± sd): 1.59 (0)
  Fold difference ONOO− (mean ± sd): 0.67 (0)
[13]
  Fold difference NO (mean ± sd): 1.12 (0.07)
  Fold difference NO/ONOO− (mean ± sd): 1.46 (0.14)
  Fold difference ONOO− (mean ± sd): 0.77 (0.08)
[14]
  Fold difference NO (mean ± sd): 1.12 (0.09)
  Fold difference NO/ONOO− (mean ± sd): 1.29 (0.01)
  Fold difference ONOO− (mean ± sd): 0.87 (0.06)
[15]
  Fold difference NO (mean ± sd): 1.15 (0.06)
  Fold difference NO/ONOO− (mean ± sd): 1.44 (0.16)
  Fold difference ONOO− (mean ± sd): 0.80 (0.07)
[16]
  Fold difference NO (mean ± sd): 1.16 (0.06)
  Fold difference NO/ONOO− (mean ± sd): 1.48 (0.18)
  Fold difference ONOO− (mean ± sd): 0.79 (0.07)
[17]
  Fold difference NO (mean ± sd): 1.13 (0.06)
  Fold difference NO/ONOO− (mean ± sd): 1.39 (0.13)
  Fold difference ONOO− (mean ± sd): 0.82 (0.07)
[18]
  Fold difference NO (mean ± sd): 1.13 (0.06)
  Fold difference NO/ONOO− (mean ± sd): 1.39 (0.13)
  Fold difference ONOO− (mean ± sd): 0.82 (0.06)
[19]
  Fold difference NO (mean ± sd): 1.12 (0.07)
  Fold difference NO/ONOO− (mean ± sd): 1.39 (0.13)
  Fold difference ONOO− (mean ± sd): 0.81 (0.08)
[20]
  Fold difference NO (mean ± sd): 1.17 (0)
  Fold difference NO/ONOO− (mean ± sd): 1.39 (0)
  Fold difference ONOO− (mean ± sd): 0.85 (0)
[21]
  Fold difference NO (mean ± sd): 1.14 (0.04)
  Fold difference NO/ONOO− (mean ± sd): 1.37 (0.04)
  Fold difference ONOO− (mean ± sd): 0.83 (0.03)
[22]
  Fold difference NO (mean ± sd): 1.16 (0.06)
  Fold difference NO/ONOO− (mean ± sd): 1.44 (0.13)
  Fold difference ONOO− (mean ± sd): 0.81 (0.05)
[23]
  Fold difference NO (mean ± sd): 1.17 (0.07)
  Fold difference NO/ONOO− (mean ± sd): 1.46 (0.14)
  Fold difference ONOO− (mean ± sd): 0.80 (0.06)
[24]
  Fold difference NO (mean ± sd): 1.14 (0.07)
  Fold difference NO/ONOO− (mean ± sd): 1.43 (0.17)
  Fold difference ONOO− (mean ± sd): 0.81 (0.07)
[25]
  Fold difference NO (mean ± sd): 1.14 (0.07)
  Fold difference NO/ONOO− (mean ± sd): 1.42 (0.18)
  Fold difference ONOO− (mean ± sd): 0.81 (0.08)
[26]
  Fold difference NO (mean ± sd): 1.17 (0)
  Fold difference NO/ONOO− (mean ± sd): 1.53 (0)
  Fold difference ONOO− (mean ± sd): 0.77 (0)
[27]
  Fold difference NO (mean ± sd): 1.08 (0)
  Fold difference NO/ONOO− (mean ± sd): 1.59 (0)
  Fold difference ONOO− (mean ± sd): 0.67 (0)
